ChEMBL document CHEMBL1148279, “Effects of bisphosphonates on the growth of Entamoeba histolytica and Plasmodium species in vitro and in vivo” (J Med Chem, 2004)

Tests used:
Entamoeba histolytica = test: In vitro growth inhibition against Entamoeba histolytica; assay type: functional, organism-based
in vitro = conditions: human, KB cells (nasopharyngeal carcinoma)
Description: Toxicity evaluated against human nasopharyngeal carcinoma KB cell line

Plasmodium falciparum = test: microbe, parasite or virus in culture
Description: In vitro growth inhibition against Plasmodium falciparum

SMILES | IC50 (Entamoeba histolytica) [µM] | CC50 (in vitro) [µM] | IC50 (Plasmodium falciparum) [µM]
O=C(O)c1cn(C2CC2)c2cc(N3CCN(CC(P(=O)(O)O)P(=O)(O)O)CC3)c(F)cc2c1=O | > 200 | > 568 | > 200
NCCCC(O)(P(=O)(O)O)P(=O)(O)O [ALENDRONIC ACID] | > 200 | – | –
O=P(O)(O)C(NC1CCCCCC1)P(=O)(O)O [INCADRONIC ACID] | > 200 | 166 | > 200
CCCCCCCCCCCCCCCCCC(O)(P(=O)(O)O)P(=O)(O)O | > 200 | < 0.65 | > 200
O=P(O)(O)C(Nc1c(F)c(F)c(F)c(F)c1F)P(=O)(O)O | > 200 | > 779 | > 200
O=P(O)(O)C(NC1CCCCC1)P(=O)(O)O [(CYCLOHEXYLAMINO)METHYLENEDIPHOSPHONIC ACID] | – | – | > 200
CCCN(CCC)C(P(=O)(O)O)P(=O)(O)O [(DIPROPYLAMINO)METHYLENEDIPHOSPHONIC ACID] | > 200 | 322 | > 200
O=P(O)(O)C(N1CCCCC1)P(=O)(O)O | > 200 | > 1090 | > 200
O=P(O)(O)C(O)(C1CC1)P(=O)(O)O [CYCLOPROPYL(HYDROXY)METHYLENEDIPHOSPHONIC ACID] | > 200 | > 1240 | > 200
CC(N)CC(O)(P(=O)(O)O)P(=O)(O)O (stereo not given) | > 200 | > 977 | –
NCCCCCC(O)(P(=O)(O)O)P(=O)(O)O [NERIDRONIC ACID] | > 200 | – | –
O=P(O)(O)C(Nc1ccccn1)P(=O)(O)O | > 200 | 465 | > 200
CCn1c2ccccc2c2ccc(NC(P(=O)(O)O)P(=O)(O)O)cc21 | > 200 | 710 | 104
O=P(O)(O)C(CNc1ccccn1)P(=O)(O)O | > 200 | 144 | 17
O=P(O)(O)C(N1CCSCC1)P(=O)(O)O [THIOMORPHOLINOMETHYLENEDIPHOSPHONIC ACID] | > 200 | > 1120 | > 200
O=P(O)(O)C(O)(Cc1ccccn1)P(=O)(O)O | > 200 | – | –
O=P(O)(O)C(Nc1cc(Cl)cc(Cl)c1)P(=O)(O)O [(3,5-DICHLOROPHENYLAMINO)METHYLENEDIPHOSPHONIC ACID] | > 200 | 314 | > 200
CC(C)CNC(P(=O)(O)O)P(=O)(O)O [(ISOBUTYLAMINO)METHYLENEDIPHOSPHONIC ACID] | > 200 | 50.5 | > 200
O=P(O)(O)C(O)(Cc1c[nH]cn1)P(=O)(O)O | > 200 | 41 | –
CN(C)CCC(O)(P(=O)(O)O)P(=O)(O)O [OLPADRONIC ACID] | > 200 | > 1050 | –
Cc1cccc(NC(P(=O)(O)O)P(=O)(O)O)n1 | 64 | 18.6 | > 200
O=P(O)(O)C(O)(CCc1cccnc1)P(=O)(O)O | > 200 | > 804 | –
Nc1ccc(CC(O)(P(=O)(O)O)P(=O)(O)O)cc1 | > 200 | – | –
O=P(O)(O)C(N(C1CCCCC1)C1CCCCC1)P(=O)(O)O [(DICYCLOHEXYLAMINO)METHYLENEDIPHOSPHONIC ACID] | > 200 | > 844 | > 200
O=P(O)(O)C(O)(C1CCCCC1)P(=O)(O)O [CYCLOHEXYL(HYDROXY)METHYLENEDIPHOSPHONIC ACID] | > 200 | 1090 | > 200
O=P(O)(O)C(Nc1ccc(Cl)cn1)P(=O)(O)O | 87 | > 991 | 10.6
O=P(O)(O)C(Nc1ccc2c(c1)CCC2)P(=O)(O)O | > 200 | > 976 | > 200
CCc1cccc(NC(P(=O)(O)O)P(=O)(O)O)c1 | > 200 | > 1020 | > 200

SMILES | IC50 (Entamoeba histolytica) [µM] | CC50 (in vitro) [µM] | IC50 (Plasmodium falciparum) [µM]
O=P(O)(O)C(Nc1cccnc1Cl)P(=O)(O)O | > 200 | > 963 | > 200
CCOP(=O)(OCC)C(Nc1ncccc1C)P(=O)(OCC)OCC | > 200 | > 790 | –
NCCCCC(O)(P(=O)(O)O)P(=O)(O)O | > 200 | 91 | –
CCCCNC(P(=O)(O)O)P(=O)(O)O [(BUTYLAMINO)METHYLENEDIPHOSPHONIC ACID] | > 200 | 212 | > 200
CCCC(O)(P(=O)(O)O)P(=O)(O)O | > 200 | > 967 | –
O=P(O)(O)C(O)(Cn1ccnc1)P(=O)(O)O [ZOLEDRONIC ACID] | 12 | 63.7 | 167
CCOP(=O)(OCC)C(Nc1cc(C)ccn1)P(=O)(OCC)OCC | > 200 | 127 | > 200
Cc1cccnc1NC(P(=O)(O)O)P(=O)(O)O | > 200 | – | –
O=P(O)(O)C(N1CCCCCC1)P(=O)(O)O [N-(HEXAMETHYLENEIMINO)METHYLENEBISPHOSPHONIC ACID] | > 200 | > 1100 | > 200
Cc1ncc([N+](=O)[O-])n1CCO [METRONIDAZOLE] | 3.2 | – | –
CCCCCCCC(O)(P(=O)(O)O)P(=O)(O)O | 22.3 | 308 | 26.7
Cc1csc(NC(P(=O)(O)O)P(=O)(O)O)n1 | > 200 | 150 | > 200
O=P(O)(O)C(O)(Cc1ccncc1)P(=O)(O)O | > 200 | 171 | –
O=P(O)(O)C(NC1CCC1)P(=O)(O)O [(CYCLOBUTYLAMINO)METHYLENEDIPHOSPHONIC ACID] | > 200 | 260 | > 200
O=P(O)(O)C(Nc1nccc2ccccc12)P(=O)(O)O | > 200 | 673 | 50.4
O=P(O)(O)C(N1CCC(O)CC1)P(=O)(O)O | > 200 | > 1010 | > 200
O=P(O)(O)C(Nc1ncccc1OCc1ccccc1)P(=O)(O)O | > 200 | > 764 | > 200
CCCCCCCc1ccc(NC(P(=O)(O)O)P(=O)(O)O)cc1 | 36.2 | 211 | –
Cc1ccnc(NC(P(=O)(O)O)P(=O)(O)O)c1 | > 200 | – | > 200
O=P(O)(O)CC(c1ccncc1)P(=O)(O)O (stereo not given) | > 200 | > 1120 | > 200
O=P(O)(O)C(Nc1nc2ccccc2s1)P(=O)(O)O | – | < 0.93 | > 200
CCCNC(P(=O)(O)O)P(=O)(O)O [(PROPYLAMINO)METHYLENEDIPHOSPHONIC ACID] | > 200 | 499 | > 200
O=P(O)(O)C(CNc1ccncc1)P(=O)(O)O | > 200 | 386 | > 200
O=P(O)(O)CC(c1cccnc1)P(=O)(O)O (stereo not given) | > 200 | 1020 | > 200
O=P(O)(O)CC(c1ccccn1)P(=O)(O)O (stereo not given) | > 200 | < 1.1 | > 200
O=P(O)(O)C(NCCc1ccc(O)cc1)P(=O)(O)O [(4-HYDROXYPHENETHYLAMINO)METHYLENEDIPHOSPHONIC ACID] | > 200 | 99.8 | > 200
O=P(O)(O)C(O)(C1CCC1)P(=O)(O)O [CYCLOBUTYL(HYDROXY)METHYLENEDIPHOSPHONIC ACID] | > 200 | > 1220 | > 200
